Where “and” joins values, the source holds several entries; their conditions need not be identical. Equal entries are not always repeated.
Assays:
human α-thrombin = human α-thrombin (Homo sapiens, UniProt P00734); test: Protease inhibition, Ki for human α-thrombin (fluorogenic substrate Z-Gly-Gly-Arg-AMC); type: biochemical; conditions: replicates R1-R3
Summary of the method: (§1)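 Ki values come from Cheng–Prusoff correction of IC50, itself fitted by four-parameter logistic regression of activity versus a no-peptide control. Assays used 2 nM human or 3 nM rat thrombin, 50 μM Z-Gly-Gly-Arg-AMC, 30 min kinetic fluorescence at 25 °C.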

rat α-thrombin = target: T1, rat α-thrombin (Rattus norvegicus, UniProt P18292); test: Protease inhibition, Ki for rat α-thrombin (fluorogenic substrate Z-Gly-Gly-Arg-AMC); type: biochemical; conditions: replicates R1-R3
T1 construct: rat α-thrombin (Molecular Innovations) were used at final concentrations of 2 nM and 3 nM; purchased Molecular Innovations
Summary of the method: as §1

porcine pepsin = target: T2, porcine pepsin (Sus scrofa, UniProt P00791); test: Peptide stability in simulated gastric fluid (SGF); type: in vitro ADME
T2 construct: 0.32 g of porcine pepsin (Sigma-Aldrich, P7125) was dissolved under gentle agitation; purchased Sigma-Aldrich P7125
Procedure: (§2) Simulated gastric and intestinal fluids were prepared according to the States Pharmacopeia specifications (Test Solutions, United States Pharmacopeia 35, NF 30, 2012). SGF: 0.2 g of sodium chloride was dissolved in 50 ml of water, and the pH was adjusted to 1.2 by addition of 0.7 ml of 10 M hydrochloric acid. Then, 0.32 g of porcine pepsin (Sigma-Aldrich, P7125) was dissolved under gentle agitation, and the volume was filled up to 100 ml with Milli-Q water. SIF: 0.68 g of monobasic potassium phosphate was dissolved in 25 ml of Milli-Q water, and the pH was adjusted to 6.8 by adding 7.7 ml of a 0.2 M sodium hydroxide solution. Next, 1 g of porcine pancreatin (Sigma-Aldrich, P3292) was added under gentle agitation, and the volume was adjusted to 100 ml with Milli-Q water to afford a fine suspension. To test the stability in simulated gastrointestinal fluids, 396 μl of SGF or SIF was pre-heated at 37 °C for 10 min, and 4 μl of a 1 mM peptide solution in DMSO was added. […] Supernatant was analyzed by LC–MS to measure the peptide concentrations at the different timepoints. Residual peptide was calculated by normalizing the concentrations measured at T1 to T0.

[1] = Peptide stability in simulated intestinal fluid (SIF); type: in vitro ADME, porcine; conditions: simulated gi fluid; 8 h, 37 °C, pH 6.8; read-out: Proteolytic stability: SIF (8 h) % remaining
Procedure: as §2

porcine pancreatin = test: as above; type: in vitro ADME; conditions: after 8 h vs 0 h (TIC); average of R1-R3
Procedure: as §2

[2] = Passive artificial membrane permeability (PAMPA); conditions: for PAMPA permeability: % permeability: acceptor concentration relative to equilibrium; for Papp at 50 μM / Permeability% Average / Permeability% R1 / Permeability% R3: PAMPA; for Permeability% Average: average of R1-R3; for Permeability% R1: replicate R1; for Permeability% R1 / Permeability% R3: TIC of top well sample relative to sample at theoretical equilibrium; for Permeability% R3: replicate R3;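 as to PAMPA permeability: % permeability: acceptor concentration relative to equilibrium after 12–18 h at 50 µM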
[3] = Metabolic stability in rat liver microsomes (RLMs); conditions: for microsomal CLint / half-life / half-life at 10 μM / microsomal CLint at 10 μM: rat
[4] = peptide 1.33E+02 uM, slope of proteolytic substrate cleavage over time
[5] = rat liver microsomes, individual replicates R1-R3, incubation volume 400 ul, protein 0.5 mg/ml

T2 sequence (P00791 60-385): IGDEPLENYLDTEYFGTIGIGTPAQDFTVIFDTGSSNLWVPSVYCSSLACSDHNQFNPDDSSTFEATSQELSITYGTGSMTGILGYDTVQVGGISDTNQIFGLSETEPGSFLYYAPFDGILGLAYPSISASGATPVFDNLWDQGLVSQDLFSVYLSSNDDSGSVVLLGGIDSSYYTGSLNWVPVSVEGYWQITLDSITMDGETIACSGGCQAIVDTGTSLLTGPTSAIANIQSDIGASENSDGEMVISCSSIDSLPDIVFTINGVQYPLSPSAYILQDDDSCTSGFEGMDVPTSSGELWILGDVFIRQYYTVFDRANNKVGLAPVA

Compound: C[C@@H]1NC(=O)[C@@H](NC(=O)c2ccc(Cl)s2)CNC(=O)CCSCc2cccc(n2)CSCCNC1=O [compound 18]
- Human alpha thrombin inhibition, slope normalized to DMSO (human α-thrombin; peptide 1.02E-03 uM): 93.1 and 89.2 and 94.7
- Human alpha thrombin inhibition, slope normalized to DMSO (human α-thrombin; peptide 1.04E+00 uM): 93.7 and 88.7 and 98.8
- Human alpha thrombin inhibition, slope normalized to DMSO (human α-thrombin; peptide 1.27E-04 uM): 100.2 and 94.8 and 98.1
- Human alpha thrombin inhibition, slope normalized to DMSO (human α-thrombin; peptide 1.30E-01 uM): 94.8 and 90.7 and 96.5
- Human alpha thrombin inhibition, slope normalized to DMSO (human α-thrombin; [4]): 52.1 and 50.8 and 55.1
- Human alpha thrombin inhibition, slope normalized to DMSO (human α-thrombin; peptide 1.63E-02 uM): 97.1 and 95.8 and 94.6
- Human alpha thrombin inhibition, slope normalized to DMSO (human α-thrombin; peptide 1.67E+01 uM): 73.4 and 68.5 and 72.3
- Human alpha thrombin inhibition, slope normalized to DMSO (human α-thrombin; peptide 2.03E-03 uM): 97.3 and 94.1 and 99.2
- Human alpha thrombin inhibition, slope normalized to DMSO (human α-thrombin; peptide 2.08E+00 uM): 89.4 and 90.0 and 79.4
- Human alpha thrombin inhibition, slope normalized to DMSO (human α-thrombin; peptide 2.54E-04 uM): 98.0 and 92.5 and 94.6
- Human alpha thrombin inhibition, slope normalized to DMSO (human α-thrombin; peptide 2.60E-01 uM): 94.5 and 91.9 and 98.0
- Human alpha thrombin inhibition, slope normalized to DMSO (human α-thrombin; peptide 3.18E-05 uM): 100.9 and 96.3 and 98.9
- Human alpha thrombin inhibition, slope normalized to DMSO (human α-thrombin; peptide 3.26E-02 uM): 93.0 and 91.8 and 94.1
- Human alpha thrombin inhibition, slope normalized to DMSO (human α-thrombin; peptide 3.33E+01 uM): 68.4 and 72.8 and 70.8
- Human alpha thrombin inhibition, slope normalized to DMSO (human α-thrombin; peptide 4.07E-03 uM): 96.7 and 91.0 and 96.0
- Human alpha thrombin inhibition, slope normalized to DMSO (human α-thrombin; peptide 4.17E+00 uM): 85.6 and 83.5 and 84.3
- Human alpha thrombin inhibition, slope normalized to DMSO (human α-thrombin; peptide 5.09E-04 uM): 95.1 and 89.7 and 99.5
- Human alpha thrombin inhibition, slope normalized to DMSO (human α-thrombin; peptide 5.21E-01 uM): 94.5 and 87.9 and 92.4
- Human alpha thrombin inhibition, slope normalized to DMSO (human α-thrombin; peptide 6.36E-05 uM): 96.8 and 88.2 and 100.6
- Human alpha thrombin inhibition, slope normalized to DMSO (human α-thrombin; peptide 6.51E-02 uM): 133.7 and 92.1 and 94.3
- Human alpha thrombin inhibition, slope normalized to DMSO (human α-thrombin; peptide 6.67E+01 uM): 63.9 and 63.5 and 65.7
- Human alpha thrombin inhibition, slope normalized to DMSO (human α-thrombin; peptide 8.14E-03 uM): 96.2 (2×) and 90.9
- Human alpha thrombin inhibition, slope normalized to DMSO (human α-thrombin; peptide 8.33E+00 uM): 81.3 and 78.4 and 82.3
- Rat alpha thrombin inhibition, slope normalized to DMSO (rat α-thrombin; [4]): 32.2 and 38.1 and 17.4
- Rat alpha thrombin inhibition, slope normalized to DMSO (rat α-thrombin; peptide 1.67E+01 uM): 45.0 and 46.6 and 55.7
- Rat alpha thrombin inhibition, slope normalized to DMSO (rat α-thrombin; peptide 2.08E+00 uM): 90.4 and 89.1 and 91.4
- Rat alpha thrombin inhibition, slope normalized to DMSO (rat α-thrombin; peptide 3.33E+01 uM): 47.9 and 19.5
- Rat alpha thrombin inhibition, slope normalized to DMSO (rat α-thrombin; peptide 4.17E+00 uM): 77.9 and 77.5 and 82.1
- Rat alpha thrombin inhibition, slope normalized to DMSO (rat α-thrombin; peptide 6.67E+01 uM): 36.2 and 41.8
- Rat alpha thrombin inhibition, slope normalized to DMSO (rat α-thrombin; peptide 8.33E+00 uM): 63.0 and 63.5 and 66.0
- SGF stability, Residual peptide Average (porcine pepsin; after 8 h vs 0 h (TIC), average of R1-R3): 99.57
- SGF stability, Residual peptide (porcine pepsin; after 8 h vs 0 h (TIC), single replicates R1-R3): 102.25 and 97.75 and 98.72
- remaining at 8 h (porcine pepsin; simulated gi fluid, 8 h, 37 °C, pH 1.2, read-out: Proteolytic stability: SGF (8 h) % remaining): 100 ± 2%
- remaining at 8 h [1]: 99 ± 9%
- SIF stability, Residual peptide Average (porcine pancreatin): 98.53
- PAMPA permeability: % permeability ([2]; 50 μM, 12–18 h): 2.73 ± 1.02%
- Papp at 50 μM ([2]; pH 7.4): 0.174 ×10⁻⁶ cm/s
- Permeability% Average [2]: 2.7%
- Permeability% R1 [2]: 2.77%
- Permeability% R3 [2]: 1.69%
- microsomal CLint ([3]; microsomes, CL (ul/min/mg protein) R1, RLM CL, replicate R1): 117 µL/min/mg
- microsomal CLint ([3]; microsomes, CL (ul/min/mg protein) R2, RLM CL, replicate R2): 96.6 µL/min/mg
- microsomal CLint ([3]; microsomes, CL (ul/min/mg protein) R3, RLM CL, replicate R3): 95.7 µL/min/mg
- half-life ([3]; microsomes, Half Life (min) R1, RLM metabolic stability, replicate R1, 0-60 min): 11.8 min
- half-life ([3]; microsomes, Half Life (min) R2, RLM metabolic stability, replicate R2, 0-60 min): 14.3 min
- half-life ([3]; microsomes, Half Life (min) R3, RLM metabolic stability, replicate R3, 0-60 min): 14.5 min
- half-life ([3]; microsomes, Metabolic stability: Half life T1/2 (min), RLMs, mean and SD, three measurements): 13.5 ± 1.2 min
- microsomal CLint ([3]; microsomes, Metabolic stability: RLM CL (ul/min/mg), RLMs, mean and SD, three measurements): 103 ± 10 µL/min/mg

Compound: C[C@]12CC[C@H]3[C@@H](CCC4=CC(=O)CC[C@@]43C)[C@@H]1CC[C@@H]2O [Testosterone, reference compound]
- PAMPA permeability: % permeability ([2]; 50 μM, 12–18 h): 88.2 ± 1.1%
- TIC value at 0 min ([3]; rat liver microsomes, 0 min incubation, LCMS TIC, individual replicates R1-R3, protein 0.5 mg/ml, Ox (+16)/(+32), deMe (-14)/(-28) = mass adducts (metabolites)): 365657 (2×) and 448878
- TIC value at 5 min ([3]; rat liver microsomes, 5 min incubation, LCMS TIC, individual replicates R1-R3, protein 0.5 mg/ml): 76968 and 89225 and 92782
- TIC value at 15 min ([3]; rat liver microsomes, 15 min incubation, LCMS TIC, individual replicates R1-R3, protein 0.5 mg/ml): 0
- TIC value at 30 min ([3]; rat liver microsomes, 30 min incubation, LCMS TIC, individual replicates R1-R3, protein 0.5 mg/ml): 0
- TIC value at 60 min ([3]; rat liver microsomes, 60 min incubation, LCMS TIC, individual replicates R1-R3, protein 0.5 mg/ml): 0
- Half Life ([3]; rat liver microsomes, individual replicates R1-R3): 2.29 min and 2.19 min
- RLM CL [3, 5]: 606.56 ul/min/mg protein and 632.01 ul/min/mg protein
- half-life at 10 μM ([3]; microsomes, pH 7.4, Half Life Mean, rat liver microsomes, mean of R1-R3): 2.23 min
- half-life at 10 μM ([3]; microsomes, pH 7.4, Half Life, rat liver microsomes, individual replicates R1-R3): 2.21 min
- half-life at 10 μM ([3]; microsomes, pH 7.4, Metabolic stability: Half life T1/2 (min), RLMs, mean and SD, three measurements): 2.2 ± 0.1 min
- microsomal CLint at 10 μM ([3]; microsomes, pH 7.4, Metabolic stability: RLM CL (ul/min/mg), RLMs, mean and SD, three measurements): 620 ± 10 µL/min/mg
- microsomal CLint at 10 μM ([3]; microsomes, pH 7.4, RLM CL Mean, rat liver microsomes, mean of R1-R3): 622 µL/min/mg
- microsomal CLint at 10 μM ([3]; microsomes, pH 7.4, RLM CL, rat liver microsomes, individual replicates R1-R3, incubation volume 400 ul, protein 0.5 mg/ml): 626 µL/min/mg

Compound: CC(=O)CC(c1ccccc1)c1c(O)c2ccccc2oc1=O (centres unmarked) [Warfarin, warfarin, reference compound]
- PAMPA permeability: % permeability ([2]; 50 μM, 12–18 h): 50 ± 5%
- Papp at 50 μM ([2]; pH 7.4, PAMPA permeability: logPapp, 50 μM, 12–18 h): 4.57 ×10⁻⁶ cm/s
- Papp at 50 μM ([2]; pH 7.4, apparent permeability logPapp (PAMPA), 50 μM, pH 7.4, 12–18 h): 5.01 ×10⁻⁶ cm/s
- Permeability% Average [2]: 50.0%
- Permeability% R1 [2]: 48.28%
- Permeability% R3 [2]: 55.67%
- CL (ul/min/mg protein) R1 ([3]; RLM CL, replicate R1): 3.761 ul/min/mg protein
- RLM CL [3, 5]: 2.64 ul/min/mg protein
- microsomal CLint at 10 μM ([3]; rat liver microsomes, pH 7.4): 2 µL/min/mg

From PMC11062899, “De novo development of small cyclic peptides that are orally bioavailable” (Nature Chemical Biology, 2023)
